From the supplement of paper PMC10307832

Columns and labels:
Experiment in all cases: relative viability (nuclei count vs DMSO), 5 days (fraction); higher = more cells survive
[1] = tested on: NCI-H1793
Outline: (§1)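 After 5 days of treatment, lung cancer cells in 1536-well plates were fixed and stained in a single step (final 0.05% Triton X-100, 1% formaldehyde, 1 ug/ml Hoechst) and their nuclei counted on 4× images. Treatment had been applied by pin tool the day after seeding as one drug alone or as a fixed anchor-drug dose with five library-drug doses (not always all listed) in √10 steps. Relative viability is the nuclei count of treated wells divided by that of vehicle wells, and values are medians of duplicate plates.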

[2] = tested on: A-427
Outline: as §1

[3] = tested on: NCI-H727
Outline: as §1

[4] = tested on: NCI-H596
Outline: as §1

[5] = tested on: H3255
Outline: as §1

[6] = tested on: SW 1573
Outline: as §1

[7] = tested on: LC-2-ad
Outline: as §1

[8] = tested on: COR-L23
Outline: as §1

[9] = tested on: LK-2
Outline: as §1

[10] = tested on: LU99A
Outline: as §1

[11] = tested on: NCI-H1563
Outline: as §1

[12] = tested on: NCI-H2228
Outline: as §1

[13] = tested on: LCLC-103H
Outline: as §1

[14] = tested on: NCI-H1650
Outline: as §1

[15] = tested on: PC-14
Outline: as §1

[16] = tested on: LCLC-97TM1
Outline: as §1

[17] = tested on: NCI-H460
Outline: as §1

[18] = tested on: 201T
Outline: as §1

[19] = tested on: NCI-H2347
Outline: as §1

[20] = tested on: SW 900
Outline: as §1

[21] = tested on: NCI-H23
Outline: as §1

For `Cc1sc2c(c1C)C(c1ccc(Cl)cc1)=N[C@@H](CC(=O)OC(C)(C)C)c1nnc(C)n1-2` [JQ1] + COc1cc2c(Oc3ccc(NC(=O)C4(C(=O)Nc5ccc(F)cc5)CC4)cc3F)ccnc2cc1OCCCN1CCOCC1 [Foretinib] (partner 0.25 µM), the relative viability ([1]; first compound 0.04 µM) was 0.65, the relative viability ([1]; first compound 0.1265 µM) was 0.788 and the relative viability ([1]; first compound 0.4 µM) was 0.713. It also gave a relative viability ([1]; first compound 1.265 µM) of 0.728, a relative viability ([1]; first compound 4 µM) of 0.483 and a relative viability ([2]; first compound 0.04 µM) of 1.01. It also gave a relative viability ([2]; first compound 0.1265 µM) of 0.988, a relative viability ([2]; first compound 0.4 µM) of 0.913 and a relative viability ([2]; first compound 1.265 µM) of 0.908. The relative viability ([2]; first compound 4 µM) was 0.636, the relative viability ([3]; first compound 0.04 µM) was 0.841 and the relative viability ([3]; first compound 0.1265 µM) was 0.864. It also gave a relative viability ([3]; first compound 0.4 µM) of 0.537, a relative viability ([3]; first compound 1.265 µM) of 0.336 and a relative viability ([3]; first compound 4 µM) of 0.438. The relative viability ([4]; first compound 0.04 µM) was 0.951, the relative viability ([4]; first compound 0.1265 µM) was 0.61 and the relative viability ([4]; first compound 0.4 µM) was 0.466. The relative viability ([4]; first compound 1.265 µM) was 0.322, the relative viability ([4]; first compound 4 µM) was 0.225 and the relative viability ([5]; first compound 0.04 µM) was 0.78. The relative viability ([5]; first compound 0.1265 µM) was 0.884, the relative viability ([5]; first compound 0.4 µM) was 0.987 and the relative viability ([5]; first compound 1.265 µM) was 0.793. For the same compound, the relative viability ([5]; first compound 4 µM) was 0.442, the relative viability ([6]; first compound 0.04 µM) was 0.907 and the relative viability ([6]; first compound 0.1265 µM) was 0.837. For the same compound, the relative viability ([6]; first compound 0.4 µM) was 0.777, the relative viability ([6]; first compound 1.265 µM) was 0.439 and the relative viability ([6]; first compound 4 µM) was 0.384. The relative viability ([7]; first compound 0.04 µM) was 0.809, the relative viability ([7]; first compound 0.1265 µM) was 0.625 and the relative viability ([7]; first compound 0.4 µM) was 0.538. It also gave a relative viability ([7]; first compound 1.265 µM) of 0.359, a relative viability ([7]; first compound 4 µM) of 0.266 and a relative viability ([8]; first compound 0.04 µM) of 0.98. It also gave a relative viability ([8]; first compound 0.1265 µM) of 0.73, a relative viability ([8]; first compound 0.4 µM) of 0.892 and a relative viability ([8]; first compound 1.265 µM) of 0.663. It also gave a relative viability ([8]; first compound 4 µM) of 0.432, a relative viability ([9]; first compound 0.04 µM) of 1.21 and a relative viability ([9]; first compound 0.1265 µM) of 1.04. It also gave a relative viability ([9]; first compound 0.4 µM) of 0.325, a relative viability ([9]; first compound 1.265 µM) of 0.226 and a relative viability ([9]; first compound 4 µM) of 0.221. For the same compound, the relative viability ([10]; first compound 0.04 µM) was 0.821, the relative viability ([10]; first compound 0.1265 µM) was 0.85 and the relative viability ([10]; first compound 0.4 µM) was 0.559. For the same compound, the relative viability ([10]; first compound 1.265 µM) was 0.374, the relative viability ([10]; first compound 4 µM) was 0.304 and the relative viability ([11]; first compound 0.04 µM) was 0.96. For the same compound, the relative viability ([11]; first compound 0.1265 µM) was 0.733, the relative viability ([11]; first compound 0.4 µM) was 0.756 and the relative viability ([11]; first compound 1.265 µM) was 0.681. For the same compound, the relative viability ([11]; first compound 4 µM) was 0.692, the relative viability ([12]; first compound 0.04 µM) was 0.806 and the relative viability ([12]; first compound 0.1265 µM) was 0.766. For the same compound, the relative viability ([12]; first compound 0.4 µM) was 0.647, the relative viability ([12]; first compound 1.265 µM) was 0.481 and the relative viability ([12]; first compound 4 µM) was 0.383. It also gave a relative viability ([13]; first compound 0.04 µM) of 0.765, a relative viability ([13]; first compound 0.1265 µM) of 0.6 and a relative viability ([13]; first compound 0.4 µM) of 0.562. It also gave a relative viability ([13]; first compound 1.265 µM) of 0.481, a relative viability ([13]; first compound 4 µM) of 0.301 and a relative viability ([14]; first compound 0.04 µM) of 0.894. It also gave a relative viability ([14]; first compound 0.1265 µM) of 0.656, a relative viability ([14]; first compound 0.4 µM) of 0.568 and a relative viability ([14]; first compound 1.265 µM) of 0.26. The relative viability ([14]; first compound 4 µM) was 0.161, the relative viability ([15]; first compound 0.04 µM) was 0.906 and the relative viability ([15]; first compound 0.1265 µM) was 0.645. For the same compound, the relative viability ([15]; first compound 0.4 µM) was 0.625, the relative viability ([15]; first compound 1.265 µM) was 0.582 and the relative viability ([15]; first compound 4 µM) was 0.477. It also gave a relative viability ([16]; first compound 0.04 µM) of 0.909, a relative viability ([16]; first compound 0.1265 µM) of 0.949 and a relative viability ([16]; first compound 0.4 µM) of 0.823. It also gave a relative viability ([16]; first compound 1.265 µM) of 0.617, a relative viability ([16]; first compound 4 µM) of 0.4 and a relative viability ([17]; first compound 0.04 µM) of 0.901. It also gave a relative viability ([17]; first compound 0.1265 µM) of 0.932, a relative viability ([17]; first compound 0.4 µM) of 0.628 and a relative viability ([17]; first compound 1.265 µM) of 0.12. For the same compound, the relative viability ([17]; first compound 4 µM) was 0.112, the relative viability ([18]; first compound 0.04 µM) was 1.02 and the relative viability ([18]; first compound 0.1265 µM) was 0.704. For the same compound, the relative viability ([18]; first compound 0.4 µM) was 0.514, the relative viability ([18]; first compound 1.265 µM) was 0.343 and the relative viability ([18]; first compound 4 µM) was 0.215. It also gave a relative viability ([19]; first compound 0.04 µM) of 1.04, a relative viability ([19]; first compound 0.1265 µM) of 1.15 and a relative viability ([19]; first compound 0.4 µM) of 1.02. For the same compound, the relative viability ([19]; first compound 1.265 µM) was 0.842, the relative viability ([19]; first compound 4 µM) was 0.393 and the relative viability ([20]; first compound 0.04 µM) was 0.699. For the same compound, the relative viability ([20]; first compound 0.1265 µM) was 1.06, the relative viability ([20]; first compound 0.4 µM) was 0.377 and the relative viability ([20]; first compound 1.265 µM) was 0.224. For the same compound, the relative viability ([20]; first compound 4 µM) was 0.188, the relative viability ([21]; first compound 0.04 µM) was 0.986 and the relative viability ([21]; first compound 0.1265 µM) was 0.772. It also gave a relative viability ([21]; first compound 0.4 µM) of 0.546, a relative viability ([21]; first compound 1.265 µM) of 0.558 and a relative viability ([21]; first compound 4 µM) of 0.297.
